Source: patent US20230271950A1, “ANTIBACTERIAL PICOLINAMIDE COMPOUNDS” (University of Notre Dame Du Lac, priority 2020, published 2023)
Converted amounts (≈) assume the structure as drawn. Read-outs that look alike come from different tables or passages of the source.

Columns and labels:
C. difficile = assay: MIC by broth microdilution against C. difficile strains; assay type: cell-based, Clostridioides difficile; details: for MIC: read-out: MIC
[1] = system: Fecal microbiota preparation; assay: MIC against fecal microbiota preparation; assay type: cell-based; details: Fecal microbiota preparation from OpenBiome tested at 1000-fold dilution
Protocol: Minimum inhibitory concentrations (MIC). MICs for C. difficile strains and the common gut bacteria were determined using broth microdilution techniques as reported earlier using brucella broth supplemented with hemin and vitamin K or supplemented BHIS broth. Lactobacillus MRS broth was used for lactobacillus strains. Sodium lactate was supplemented in the media for Veillonella sp. […] All incubations, unless specified otherwise, were carried out at 24 h or 48 h at 37° C. in an anaerobic chamber (Whitley DG250 workstation, Microbiology International, Frederick, Md.). Corynebacterium and Lactobacillus species were incubated aerobically.

Corynebacterium spp. = assay: MIC against gut bacterium Corynebacterium spp.; assay type: cell-based; details: Corynebacterium, Corynebacterium spp. strain HM-784

`CCc1c(Cl)c(O)c(Cl)c(O)c1C(=O)O[C@H]1[C@H](O)[C@H](OC)[C@H](OC/C2=C\C=C\C[C@H](O)/C(C)=C/[C@H](CC)[C@@H](O[C@@H]3OC(C)(C)[C@@H](OC(=O)C(C)C)[C@H](O)[C@@H]3O)/C(C)=C/C(C)=C/C[C@@H]([C@@H](C)O)OC2=O)O[C@@H]1C` [FDX, fidaxomicin, reference compound] showed an MIC (C. difficile; Clostridioides difficile, C. difficile NR49292, Table 7) of 0.5 µg/mL (≈ 0.473 µM), an MIC (C. difficile; Clostridioides difficile, C. difficile NR49292, Table 9) of 0.5 µg/mL (≈ 0.473 µM) and an MIC (C. difficile; Clostridioides difficile, C. difficile NR49294, Table 7) of 0.01 µg/mL (≈ 0.00945 µM). The MIC (C. difficile; Clostridioides difficile, C. difficile NR49294, Table 9) was 0.01 µg/mL (≈ 0.00945 µM), the MIC (C. difficile; Clostridioides difficile, C. difficile NR49302, Table 7) was 0.03 µg/mL (≈ 0.0284 µM) and the MIC (C. difficile; Clostridioides difficile, C. difficile NR49302, Table 9) was 0.03 µg/mL (≈ 0.0284 µM). It also gave an MIC (C. difficile; Clostridioides difficile, C. difficile NR49305, Table 7) of 0.01 µg/mL (≈ 0.00945 µM), an MIC (C. difficile; Clostridioides difficile, C. difficile NR49305, Table 9) of 0.01 µg/mL (≈ 0.00945 µM) and an MIC (C. difficile; Clostridioides difficile, C. difficile NR49310, Table 7) of at most 0.01 µg/mL. It also gave an MIC (C. difficile; Clostridioides difficile, C. difficile NR49310, Table 9) of at most 0.01 µg/mL, an MIC (C. difficile; Clostridioides difficile, C. difficile NR-13427, Table 9) of 0.03 µg/mL (≈ 0.0284 µM) and an MIC (C. difficile; Clostridioides difficile, C. difficile NR-13428, Table 9) of at most 0.03 µg/mL. The MIC (C. difficile; Clostridioides difficile, C. difficile NR-13429, Table 9) was 0.25 µg/mL (≈ 0.236 µM), the MIC (C. difficile; Clostridioides difficile, C. difficile NR-13430, Table 9) was at most 0.03 µg/mL and the MIC (C. difficile; Clostridioides difficile, C. difficile NR-13434, Table 9) was 0.06 µg/mL (≈ 0.0567 µM). It also gave an MIC (C. difficile; Clostridioides difficile, C. difficile NR-13435, Table 9) of at most 0.03 µg/mL, an MIC (C. difficile; Clostridioides difficile, C. difficile NR-13437, Table 9) of 0.25 µg/mL (≈ 0.236 µM) and an MIC (C. difficile; Clostridioides difficile, C. difficile NR-13438, Table 9) of 0.06 µg/mL (≈ 0.0567 µM). It also gave an MIC (C. difficile; Clostridioides difficile, C. difficile NR-13553, Table 9) of at most 0.03 µg/mL, an MIC (C. difficile; Clostridioides difficile, C. difficile NR-32882, Table 9) of 0.06 µg/mL (≈ 0.0567 µM) and an MIC (C. difficile; Clostridioides difficile, C. difficile NR-32884, Table 9) of 0.03 µg/mL (≈ 0.0284 µM). It also gave an MIC (C. difficile; Clostridioides difficile, C. difficile NR-32885, Table 9) of 0.25 µg/mL (≈ 0.236 µM), an MIC (C. difficile; Clostridioides difficile, C. difficile NR-32886, Table 9) of 0.03 µg/mL (≈ 0.0284 µM) and an MIC (C. difficile; Clostridioides difficile, C. difficile NR-32888, Table 9) of 0.03 µg/mL (≈ 0.0284 µM). For the same molecule, the MIC (C. difficile; Clostridioides difficile, C. difficile NR-32889, Table 9) was 0.25 µg/mL (≈ 0.236 µM), the MIC (C. difficile; Clostridioides difficile, C. difficile NR-32890, Table 9) was 0.06 µg/mL (≈ 0.0567 µM) and the MIC (C. difficile; Clostridioides difficile, C. difficile NR-32891, Table 9) was 0.03 µg/mL (≈ 0.0284 µM). It also gave an MIC (C. difficile; Clostridioides difficile, C. difficile NR-32892, Table 9) of 0.03 µg/mL (≈ 0.0284 µM), an MIC (C. difficile; Clostridioides difficile, C. difficile NR-32895, Table 9) of 0.03 µg/mL (≈ 0.0284 µM) and an MIC (C. difficile; Clostridioides difficile, C. difficile NR-32896, Table 9) of 0.03 µg/mL (≈ 0.0284 µM). The MIC (C. difficile; Clostridioides difficile, C. difficile NR-32897, Table 9) was 0.03 µg/mL (≈ 0.0284 µM), the MIC (C. difficile; Clostridioides difficile, C. difficile NR-32900, Table 9) was 0.03 µg/mL (≈ 0.0284 µM) and the MIC (C. difficile; Clostridioides difficile, C. difficile NR-32903, Table 9) was 0.03 µg/mL (≈ 0.0284 µM). For the same molecule, the MIC (C. difficile; Clostridioides difficile, C. difficile NR-32904, Table 9) was 0.03 µg/mL (≈ 0.0284 µM), the MIC (C. difficile; Clostridioides difficile, C. difficile NR-49277, Table 9) was 0.06 µg/mL (≈ 0.0567 µM) and the MIC (C. difficile; Clostridioides difficile, C. difficile NR-49278, Table 9) was 0.25 µg/mL (≈ 0.236 µM). It also gave an MIC (C. difficile; Clostridioides difficile, C. difficile NR-49279, Table 9) of 0.25 µg/mL (≈ 0.236 µM), an MIC (C. difficile; Clostridioides difficile, C. difficile NR-49281, Table 9) of 0.25 µg/mL (≈ 0.236 µM) and an MIC (C. difficile; Clostridioides difficile, C. difficile NR-49282, Table 9) of 0.06 µg/mL (≈ 0.0567 µM). It also gave an MIC (C. difficile; Clostridioides difficile, C. difficile NR-49283, Table 9) of 0.03 µg/mL (≈ 0.0284 µM), an MIC (C. difficile; Clostridioides difficile, C. difficile NR-49284, Table 9) of 0.06 µg/mL (≈ 0.0567 µM) and an MIC (C. difficile; Clostridioides difficile, C. difficile NR-49285, Table 9) of 0.06 µg/mL (≈ 0.0567 µM). For the same molecule, the MIC (C. difficile; Clostridioides difficile, C. difficile NR-49286, Table 9) was 0.25 µg/mL (≈ 0.236 µM), the MIC (C. difficile; Clostridioides difficile, C. difficile NR-49287, Table 9) was 0.25 µg/mL (≈ 0.236 µM) and the MIC (C. difficile; Clostridioides difficile, C. difficile NR-49288, Table 9) was 0.25 µg/mL (≈ 0.236 µM). The MIC (C. difficile; Clostridioides difficile, C. difficile NR-49289, Table 9) was 0.03 µg/mL (≈ 0.0284 µM), the MIC (C. difficile; Clostridioides difficile, C. difficile NR-49290, Table 9) was 0.06 µg/mL (≈ 0.0567 µM) and the MIC (C. difficile; Clostridioides difficile, C. difficile NR-49291, Table 9) was 0.25 µg/mL (≈ 0.236 µM). The MIC (C. difficile; Clostridioides difficile, C. difficile NR-49293, Table 9) was at most 0.03 µg/mL, the MIC (C. difficile; Clostridioides difficile, C. difficile NR-49295, Table 9) was at most 0.03 µg/mL and the MIC (C. difficile; Clostridioides difficile, C. difficile NR-49296, Table 9) was at most 0.03 µg/mL. It also gave an MIC (C. difficile; Clostridioides difficile, C. difficile NR-49297, Table 9) of 0.0125 µg/mL (≈ 0.0118 µM), an MIC (C. difficile; Clostridioides difficile, C. difficile NR-49300, Table 9) of 0.03 µg/mL (≈ 0.0284 µM) and an MIC (C. difficile; Clostridioides difficile, C. difficile NR-49301, Table 9) of 0.03 µg/mL (≈ 0.0284 µM). The MIC (C. difficile; Clostridioides difficile, C. difficile NR-49303, Table 9) was 0.03 µg/mL (≈ 0.0284 µM), the MIC (C. difficile; Clostridioides difficile, C. difficile NR-49304, Table 9) was 0.06 µg/mL (≈ 0.0567 µM) and the MIC (C. difficile; Clostridioides difficile, C. difficile NR-49306, Table 9) was 0.03 µg/mL (≈ 0.0284 µM). It also gave an MIC (C. difficile; Clostridioides difficile, C. difficile NR-49307, Table 9) of 0.03 µg/mL (≈ 0.0284 µM), an MIC (C. difficile; Clostridioides difficile, C. difficile NR-49309, Table 9) of 0.03 µg/mL (≈ 0.0284 µM) and an MIC (C. difficile; Clostridioides difficile, C. difficile NR-49311, Table 9) of 0.03 µg/mL (≈ 0.0284 µM). For the same molecule, the MIC (C. difficile; Clostridioides difficile, C. difficile NR-49313, Table 9) was 0.03 µg/mL (≈ 0.0284 µM), the MIC (C. difficile; Clostridioides difficile, C. difficile NR-49314, Table 9) was 0.25 µg/mL (≈ 0.236 µM) and the MIC (C. difficile; Clostridioides difficile, C. difficile NR-49315, Table 9) was 0.06 µg/mL (≈ 0.0567 µM). It also gave an MIC (C. difficile; Clostridioides difficile, C. difficile NR-49317, Table 9) of 0.06 µg/mL (≈ 0.0567 µM), an MIC (C. difficile; Clostridioides difficile, C. difficile NR-49323, Table 9) of at most 0.03 µg/mL and an MIC (C. difficile; Clostridioides difficile, C. difficile NR-49324, Table 9) of 0.06 µg/mL (≈ 0.0567 µM). It also gave an MIC (C. difficile; Clostridioides difficile, C. difficile NR-49325, Table 9) of 0.03 µg/mL (≈ 0.0284 µM), an MIC (C. difficile; Clostridioides difficile, C. difficile NR-49326, Table 9) of 0.03 µg/mL (≈ 0.0284 µM) and an MIC (C. difficile; Clostridioides difficile, C. difficile NR-49327, Table 9) of 0.03 µg/mL (≈ 0.0284 µM). For the same molecule, the MIC (C. difficile; Clostridioides difficile, C. difficile NR-49328, Table 9) was 0.03 µg/mL (≈ 0.0284 µM), the MIC (C. difficile; Clostridioides difficile, C. difficile NR-49329, Table 9) was 0.03 µg/mL (≈ 0.0284 µM) and the MIC50 (C. difficile; Clostridioides difficile, 101 C. difficile strains) was 0.06 µg/mL (≈ 0.0567 µM). It also gave an MIC90 (C. difficile; Clostridioides difficile, 101 C. difficile strains, read-out: MIC90 (101 strains)) of 0.25 µg/mL (≈ 0.236 µM), a Selectivity (C. difficile; MIC MRSA NRS70/MIC C. difficile ATCC43255, Table 7) of 128 and an MIC [1] of over 128 µg/mL. For the same molecule, the MIC (Corynebacterium spp.; Table 1) was under 0.06 µg/mL and the MIC (Corynebacterium spp.; Table 7) was under 0.0625 µg/mL.
